PubChem BioAssay AID463204 (Broad Institute, 2010)
The source made the active and inactive calls.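 The calls were made as follows: active = AC50 no more than ten times the top concentration tested, that is within one log above it; inconclusive = flat curve fit with activity between 30% and 70%, or invalid poor fit; inactive = AC50 beyond ten times the top tested dose.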

The molecules below were run on S. cerevisiae Mot1-301 ts growth rescue, BacTiter-Glo ATP luminescence (assay: restored Mot1-301 yeast growth at 38.5C – whole organism, S. cerevisiae, Mot1-301 ts mutant, luminescence, dose retest, SUMOylation pathway inhibitor project, confirmation (AID 463204);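 also: growth at restrictive 38.5 degrees C of Mot1-301 OY566 strain; actives raise luminescence by restoring growth of the ts mutant at high temperature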).
With `COc1ccccc1NC(=O)Nc1ccc(Cl)c(S(=O)(=O)Nc2ccccc2OC)c1` the AC50 was > 42 µM (inactive).
With `Cc1cccc(N(Cc2ccccc2)C(=O)CSC(C)C(=O)Nc2cc(C)on2)c1` (configuration not stated) the AC50 was > 42 µM (inactive).
In the case of `COc1ccc2cc(C#N)c(Nc3cccc(F)c3)nc2c1`, the AC50 was > 42 µM (inactive).
Molecule `Clc1ccc(CONc2ncnc3nonc23)c(Cl)c1` has an AC50 of 5.49 µM.
For `COc1ccc(NC(=S)Nc2ccccc2OC)c(OC)c1`, the AC50 was > 42 µM (inactive).
In the case of `O=C(NCCc1cnccn1)C1CCC(=O)N(Cc2ccc(Cl)cc2)C1` (configuration not stated), the AC50 was > 42 µM (inactive).
For `COc1ccccc1NC(=O)N1CCN(C(=O)Nc2ccccc2OC)CC1`, the AC50 was > 42 µM (inactive).
For `COc1ccc(-c2nc(C#N)c(NC(C)c3ccccc3)o2)cc1OC` (configuration not stated), the AC50 was > 42 µM (inactive).
`O=C(NC1CCCCC1)N(Cc1cc2cc3c(cc2[nH]c1=O)OCCO3)C1CCCCC1` was tested, and the AC50 was > 42 µM (inactive).
In the case of `CC(C)C(=O)Nc1cccc(-c2nc3ncccc3o2)c1`, the AC50 was > 42 µM (inactive).
In the case of `COc1cc(NC(=S)N2CCN(C(=O)C3CCCO3)CC2)c(OC)cc1Cl` (configuration not stated), the AC50 was > 42 µM (inactive).
In the case of `CN(C)CCOC(c1ccc(Cl)cc1)c1ccccn1` (configuration not stated), the AC50 was > 42 µM (inactive).
For `NC1=NC(=Nc2ccc(S(N)(=O)=O)cc2)c2ccccc21`, the AC50 was > 21 µM (inactive).
`CCn1c(SCC(=O)N/N=C/c2ccccc2OCC(=O)O)nnc1-c1ccc(C(C)(C)C)cc1` was tested, and the AC50 was 32.7 µM.
With `CCOc1ccc(N(C(C)C(=O)NC(C)CC)S(C)(=O)=O)cc1` (configuration not stated) the AC50 was > 42 µM (inactive).
In the case of `CCOc1cc(NC(=O)c2cccs2)c(OCC)cc1NC(=O)CCC(=O)NCCN1CCOCC1`, the AC50 was > 42 µM (inactive).
`Cc1c(O)ccc(C(=O)CN2C(=O)c3ccccc3C2=O)c1O` was tested, and the AC50 was > 42 µM (inactive).
`Cc1nc2ccccc2c2ncccc12` was tested, and the AC50 was > 42 µM (inactive).
In the case of `COc1ccc(NC(=O)Nc2ccc(OC)cc2)cc1`, the AC50 was > 42 µM (inactive).
`COC(=O)c1ccccc1NC(NC(=O)c1ccco1)C(=O)c1ccccc1` (configuration not stated) was tested, and the AC50 was > 42 µM (inactive).
For `Cn1c(=NC(=O)COc2ccccc2)sc2cc(F)cc(F)c21`, the AC50 was > 42 µM (inactive).
`CCOC(=O)COc1nc(-c2ccc(C)cc2)cc(-c2ccco2)c1C#N` was tested, and the AC50 was > 42 µM (inactive).
`CCCOC(=O)c1c(-c2ccc(OC)cc2)oc2ccc(-c3ccc(OC)nc3)cc12` was tested, and the AC50 was > 42 µM (inactive).
For `COc1ccc(NC(=O)Cn2c(=O)cnc3ccccc32)cc1S(=O)(=O)N1CCCCC1`, the AC50 was > 42 µM (inactive).
With `CC(=O)c1c(Nc2cccc(F)c2)oc(C)cc1=O` the AC50 was > 42 µM (inactive).
`CC(=O)CSc1ncnc2sc3c(c12)CCCC3` was tested, and the AC50 was > 42 µM (inactive).
In the case of `CN(C)S(=O)(=O)c1cccc(NC(=O)COc2nc3ccccc3nc2N2CCOCC2)c1`, the AC50 was > 42 µM (inactive).
With `O=C1c2ccccc2C(=O)N1CCCCSc1nc2ccccc2c(=O)n1CCCN1CCOCC1` the AC50 was > 42 µM (inactive).
`COc1cccc(C(=O)NCc2ccc(-c3nc4ccccc4s3)cc2)c1` was tested, and the AC50 was > 42 µM (inactive).
For `CCCOC(=O)c1c(NC(=O)/C=C/c2cnn(C)c2C)sc(C(=O)OC)c1C`, the AC50 was > 42 µM (inactive).
With `O=C(Nc1ccc(F)cc1F)N1CCCN(c2ccc(C(F)(F)F)cn2)CC1` the AC50 was > 42 µM (inactive).
For `CN(C(=O)COC(=O)c1cc2ccccc2cc1O)c1c(N)n(Cc2ccccc2)c(=O)[nH]c1=O`, the AC50 was > 42 µM (inactive).
In the case of `Cc1ccc2c(c1)N(CC(=O)NCC1CCCO1)C(=O)C(C)O2` (configuration not stated), the AC50 was > 42 µM (inactive).
In the case of `O=C(NCc1cccnc1)C1CCN(S(=O)(=O)c2cccnc2)CC1`, the AC50 was > 42 µM (inactive).
In the case of `O=[N+]([O-])c1c(NCCCO)cc(Sc2nc3ccccc3s2)c2nonc12`, the AC50 was 40 µM.
In the case of `N#CCC(=O)N/N=C/c1ccc(OS(=O)(=O)c2ccccc2)cc1`, the AC50 was > 42 µM (inactive).
For `COc1ccc(NC2CCCN(C(=O)CCc3scnc3C)C2)cc1` (configuration not stated), the AC50 was > 42 µM (inactive).
In the case of `CCC(Cc1ccccc1)NC(=O)C1CCN(c2nn3c(=O)cc(C)nc3s2)CC1` (configuration not stated), the AC50 was > 42 µM (inactive).
In the case of `COc1ccc(NC(=O)c2ccc(-n3cncn3)c([N+](=O)[O-])c2)cc1`, the AC50 was > 21 µM (inactive).
For `O=C(OCc1nc2ccsc2c(=O)[nH]1)c1ccco1`, the AC50 was > 42 µM (inactive).
In the case of `COC(=O)[C@@H]1C[C@@H]2CC[C@@H](O)C[C@@H]2N1Cc1ccc(N2CCN(C)CC2)cc1`, the AC50 was > 42 µM (inactive).
For `Cc1cc(Cl)c2oc(C(=O)NC3CCC(O)CC3)c(C)c2c1` (configuration not stated), the AC50 was > 42 µM (inactive).
With `CCc1ccc(NC(=S)N(Cc2cccc(Br)c2)CC2CCC(C(=O)O)CC2)cc1` (configuration not stated) the AC50 was > 42 µM (inactive).
With `CC(C)CNc1cc(=O)n(C)c(=O)n1C` the AC50 was > 42 µM (inactive).
For `CC(C)NC(=O)COc1ccc(S(=O)(=O)N(C)Cc2ccccc2)cc1`, the AC50 was > 42 µM (inactive).
`CCOC(=O)c1c(N)sc(C(=O)N2CCCC(C(N)=O)C2)c1C` (configuration not stated) was tested, and the AC50 was > 42 µM (inactive).
`CCCC(O)(c1ccc(Br)cc1)C(CN1CCOCC1)c1ccc(Cl)cc1` (configuration not stated) gave an AC50 of 5.13 µM.
Work on `Cc1ccnc(NC(=O)CC(c2ccccc2)c2ccccc2)n1` yielded an AC50 of 29.8 µM.
With `CCNC(=O)NC1c2ccccc2CSc2ccccc21` (configuration not stated) the AC50 was > 42 µM (inactive).
With `COc1ccc(-c2nnc(-c3cc4c(ccc5ccccc54)oc3=O)o2)cc1` the AC50 was > 42 µM (inactive).
For `O=C(CCC(F)(F)F)N1CCCC(CO)(CCc2ccccc2)C1` (configuration not stated), the AC50 was > 42 µM (inactive).
With `O=C1NC(=O)N(Cc2ccccc2)C1=O` the AC50 was > 42 µM (inactive).
For `O=C(COC(=O)C1COc2ccccc2O1)NC1CCS(=O)(=O)C1` (configuration not stated), the AC50 was > 42 µM (inactive).
In the case of `O=C(COc1ncnc2ccccc12)Nc1ccc(Cl)c(S(=O)(=O)N2CCOCC2)c1`, the AC50 was > 42 µM (inactive).
`Cc1nc(CSc2nnc3scc(-c4ccccc4)n23)cs1` was tested, and the AC50 was > 42 µM (inactive).
`COc1ccc(OCCC(=O)c2ccc(OC)cc2)cc1` was tested, and the AC50 was > 42 µM (inactive).
`CCOC(=O)C1=C(C)NC(=O)CC1c1cc2c(cc1[N+](=O)[O-])OCO2` (configuration not stated) was tested, and the AC50 was > 42 µM (inactive).
With `COc1cc(C(=O)NCCC2=CCCCC2)cc(OC)c1OC` the AC50 was > 42 µM (inactive).
For `COc1ccc(S(=O)(=O)N2CCOC2CNC(=O)C(=O)NCc2ccncc2)cc1C` (configuration not stated), the AC50 was > 42 µM (inactive).
For `COc1ccccc1CNC(=O)CN(c1ccc(C)cc1)S(=O)(=O)c1c(C)n[nH]c1C`, the AC50 was > 110 µM (inactive).
In the case of `Cc1cc(NC(=O)c2ccc3c(c2)C(=O)N(C(C)(C)C)C3=O)no1`, the AC50 was > 42 µM (inactive).
For `O=C(Nc1cccc(Cl)c1)OCc1cncs1`, the AC50 was > 42 µM (inactive).
`CN(C)c1ccc(NC(=O)CSc2nc(N)c(C(=O)Nc3ccc(N(C)C)cc3)s2)cc1` was tested, and the AC50 was > 42 µM (inactive).
In the case of `Cn1c(=O)nc2n(Cc3ccccc3)c3ccccc3cc-2c1=O`, the AC50 was > 42 µM (inactive).
For `C[C@]12CC[C@H]3C(=CCc4cc(O)ccc43)[C@@H]1CCC2=O`, the AC50 was > 42 µM (inactive).
`Cc1ccsc1C(=O)NCCc1ccc(S(N)(=O)=O)cc1` was tested, and the AC50 was > 42 µM (inactive).
`Cc1ccc(NC2CC(=O)N(c3ccc(N4CCCCC4)cc3)C2=O)cc1` (configuration not stated) was tested, and the AC50 was > 21 µM (inactive).
With `O=C(N/N=C/c1cccs1)c1cncc(Br)c1` the AC50 was > 42 µM (inactive).
`CN=C1SC(CC(=O)Nc2sc3c(c2C#N)CCCC3)C(=O)N1C` (configuration not stated) was tested, and the AC50 was > 42 µM (inactive).
In the case of `COc1ccc(OC(=O)c2ccc(Cl)cc2)c(C(C)=O)c1`, the AC50 was > 42 µM (inactive).
With `CN(C)c1oc(-c2ccccc2Cl)nc1S(=O)(=O)c1ccccc1` the AC50 was > 42 µM (inactive).
For `CCOCCCNCc1ccc(OCc2ccc(F)cc2)c(OC)c1`, the AC50 was > 42 µM (inactive).
